Where two headings read alike, the source gives them in different places.
Experiments:
[1] = target: T1, complement C5a receptor 1 (C5aR1) (Homo sapiens, UniProt P21730); assay: β-arrestin recruitment via C5aR1 activation in live CHO-K1 cells (PathHunter), antagonist mode; assay type: cell-based; settings: antagonist mode; recombinant hC5a (EC90) as competing natural agonist; live CHO-K1 cells; read-out: [Antagonist] B-arrestin2 recruitment: Average IC50
T1 construct: β-galactosidase fragment (PathHunter enzyme complementation); host or cells: CHO-K1 (PathHunter CHO-K1 C5aR1 β-arrestin cell line)
T1 sequence (P21730 1-350): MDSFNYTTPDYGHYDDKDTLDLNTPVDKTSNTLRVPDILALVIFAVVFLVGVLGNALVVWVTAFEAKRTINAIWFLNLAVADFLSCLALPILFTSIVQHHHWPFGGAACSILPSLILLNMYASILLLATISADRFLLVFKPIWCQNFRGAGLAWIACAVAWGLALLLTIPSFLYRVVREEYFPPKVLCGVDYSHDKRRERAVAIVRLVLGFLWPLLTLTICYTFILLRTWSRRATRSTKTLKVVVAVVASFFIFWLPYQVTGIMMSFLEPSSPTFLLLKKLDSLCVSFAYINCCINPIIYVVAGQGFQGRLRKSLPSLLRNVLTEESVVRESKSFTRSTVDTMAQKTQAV
Method in brief: (§1)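 Live CHO-K1 cells expressing β-galactosidase fragments fused to β-arrestin and C5aR1; recruitment is read by fragment complementation. In agonist mode compounds are tested alone; in antagonist mode they compete against recombinant hC5a at EC90. IC50 reported in binned ranges.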

[2] = target: T1, complement C5a receptor 1 (C5aR1); assay: β-arrestin recruitment via C5aR1 activation in live CHO-K1 cells (PathHunter), agonist mode; assay type: cell-based
Method in brief: as §1

Row | IC50 [1] [nM] | [Agonist] B-arrestin2 recruitment: Average EC50 (nM) ([2]; at 10 μM) | [Agonist] B-arrestin2 recruitment: Average EC50 (nM) [2] | SMILES
1 | < 500 | Non-Active at 10 μM |  | Cc1cnc2cc(N3CCN(c4c(C)cccc4F)CC3)c(=O)n(Cc3ncccc3C(F)F)c2n1 [compound 140, 5-((3-(Difluoromethyl)pyridin-2-yl)methyl)-7-(4-(2-fluoro-6-methylphenyl)piperazin-1-yl)-3-methylpyrido[2,3-b]pyrazin-6(5H)-one]
2 | < 500 |  | Non-Active | Cc1cnc2cc(C3CCN(c4c(C)ccnc4F)CC3)c(=O)n(Cc3ncccc3C(F)F)c2n1 [compound 141, 5-((3-(Difluoromethyl)pyridin-2-yl)methyl)-7-(1-(2-fluoro-4-methylpyridin-3-yl)piperidin-4-yl)-3-methylpyrido[2,3-b]pyrazin-6(5H)-one]
3 | < 500 |  | Non-Active | Cc1cnc2cc(C3CCN(c4cnsc4C)CC3)c(=O)n(Cc3ncccc3C(F)(F)F)c2n1 [compound 145, 3-Methyl-7-(1-(5-methylisothiazol-4-yl)piperidin-4-yl)-5-((3-(trifluoromethyl)pyridin-2-yl)methyl)pyrido[2,3-b]pyrazin-6(5H)-one]
4 | 500 to 5000 | Non-Active at 10 μM |  | Cc1cnc2cc(C3CCN(c4nccnc4C)CC3)c(=O)n(Cc3ncccc3C(F)(F)F)c2n1 [compound 151, 3-Methyl-7-(1-(3-methylpyrazin-2-yl)piperidin-4-yl)-5-((3-(trifluoromethyl)pyridin-2-yl)methyl)pyrido[2,3-b]pyrazin-6(5H)-one]
5 | < 500 |  | Non-Active | Cc1cnc2cc([C@H]3CC[C@H](c4c(C)cccc4F)CC3)c(=O)n(Cc3ncccc3OC(F)(F)F)c2n1 [compound 152, 7-((1r,4r)-4-(2-Fluoro-6-methylphenyl)cyclohexyl)-3-methyl-5-((3-(trifluoromethoxy)pyridin-2-yl)methyl)pyrido[2,3-b]pyrazin-6(5H)-one]
6 | 500 to 5000 | Non-Active at 10 μM |  | Cc1cnc2cc(C3CCN(c4nccnc4C)CC3)c(=O)n(Cc3ncccc3OC(F)(F)F)c2n1 [compound 153, 3-Methyl-7-(1-(3-methylpyrazin-2-yl)piperidin-4-yl)-5-((3-(trifluoromethoxy)pyridin-2-yl)methyl)pyrido[2,3-b]pyrazin-6(5H)-one]
7 | < 500 | Non-Active at 10 μM |  | Cc1cnc2cc(C3CCN(c4ncccc4C(F)F)CC3)c(=O)n(Cc3ncccc3C(F)(F)F)c2n1 [compound 154, 7-(1-(3-(Difluoromethyl)pyridin-2-yl)piperidin-4-yl)-3-methyl-5-((3-(trifluoromethyl)pyridin-2-yl)methyl)pyrido[2,3-b]pyrazin-6(5H)-one]
8 | < 500 | Non-Active at 10 μM |  | Cc1cccc(F)c1N1CCC(c2cc3nccnc3n(Cc3nccnc3OC(F)F)c2=O)CC1 [compound 155, 5-((3-(Difluoromethoxy)pyrazin-2-yl)methyl)-7-(1-(2-fluoro-6-methylphenyl)piperidin-4-yl)pyrido[2,3-b]pyrazin-6(5H)-one]
9 | 500 to 5000 | Non-Active at 10 μM |  | Cc1cnc2cc(C3CCN(c4nccnc4C(F)(F)F)CC3)c(=O)n(Cc3ncccc3C(F)(F)F)c2n1 [compound 156, 3-Methyl-7-(1-(3-(trifluoromethyl)pyrazin-2-yl)piperidin-4-yl)-5-((3-(trifluoromethyl)pyridin-2-yl)methyl)pyrido[2,3-b]pyrazin-6(5H)-one]
10 | 500 to 5000 | Non-Active at 10 μM |  | Cc1cnc2cc(C3CCN(c4cccnc4C(F)(F)F)CC3)c(=O)n(Cc3ncccc3C(F)(F)F)c2n1 [compound 157, 3-Methyl-5-((3-(trifluoromethyl)pyridin-2-yl)methyl)-7-(1-(2-(trifluoromethyl)pyridin-3-yl)piperidin-4-yl)pyrido[2,3-b]pyrazin-6(5H)-one]
11 | 500 to 5000 | Non-Active at 10 μM |  | Cc1cnc2cc([C@H]3CC[C@H](c4nccs4)CC3)c(=O)n(Cc3ncccc3C(F)(F)F)c2n1 [compound 158, 3-Methyl-7-((1r,4r)-4-(thiazol-2-yl)cyclohexyl)-5-((3-(trifluoromethyl)pyridin-2-yl)methyl)pyrido[2,3-b]pyrazin-6(5H)-one]
12 | 5000 to 100000 | Non-Active at 10 μM |  | Cc1cccc(F)c1N1CCC(c2cc3nccnc3n(Cc3nccn(C(F)F)c3=O)c2=O)CC1 [compound 159, 5-((4-(Difluoromethyl)-3-oxo-3,4-dihydropyrazin-2-yl)methyl)-7-(1-(2-fluoro-6-methylphenyl)piperidin-4-yl)pyrido[2,3-b]pyrazin-6(5H)-one]
13 | < 500 |  | Non-Active | Cc1cnc2cc(C3CCN(c4cnccc4C(F)F)CC3)c(=O)n(Cc3ncccc3C(F)(F)F)c2n1 [compound 162, 7-(1-(4-(Difluoromethyl)pyridin-3-yl)piperidin-4-yl)-3-methyl-5-((3-(trifluoromethyl)pyridin-2-yl)methyl)pyrido[2,3-b]pyrazin-6(5H)-one]
14 | 500 to 5000 | Non-Active at 10 μM |  | Cc1cnc2cc([C@H]3CC[C@H](c4ncsc4C)CC3)c(=O)n(Cc3ncccc3C(F)(F)F)c2n1 [compound 163, 3-Methyl-7-((1r,4r)-4-(5-methylthiazol-4-yl)cyclohexyl)-5-((3-(trifluoromethyl)pyridin-2-yl)methyl)pyrido[2,3-b]pyrazin-6(5H)-one]
15 | 500 to 5000 | Non-Active at 10 μM |  | Cc1cnc2cc([C@H]3CC[C@H](c4scnc4C)CC3)c(=O)n(Cc3ncccc3C(F)(F)F)c2n1 [compound 164, 3-Methyl-7-((1r,4r)-4-(4-methylthiazol-5-yl)cyclohexyl)-5-((3-(trifluoromethyl)pyridin-2-yl)methyl)pyrido[2,3-b]pyrazin-6(5H)-one]
16 | < 500 | Non-Active at 10 μM |  | Cc1cnc2cc(C3CCN(c4nnccc4C(F)(F)F)CC3)c(=O)n(Cc3ncccc3C(F)(F)F)c2n1 [compound 165, 3-Methyl-7-(1-(4-(trifluoromethyl)pyridazin-3-yl)piperidin-4-yl)-5-((3-(trifluoromethyl)pyridin-2-yl)methyl)pyrido[2,3-b]pyrazin-6(5H)-one]
17 | < 500 | Non-Active at 10 μM |  | Cc1cnc2cc([C@H]3CC[C@H](c4ncsc4C)CC3)c(=O)n(Cc3ncccc3OC(F)(F)F)c2n1 [compound 166, 3-Methyl-7-((1r,4r)-4-(5-methylthiazol-4-yl)cyclohexyl)-5-((3-(trifluoromethoxy)pyridin-2-yl)methyl)pyrido[2,3-b]pyrazin-6(5H)-one]
18 | < 500 | Non-Active at 10 μM |  | Cc1cnc2cc(C3CCN(c4c(C)cccc4F)CC3)c(=O)n(Cc3nccnc3OC(F)F)c2n1 [compound 167, 5-((3-(Difluoromethoxy)pyrazin-2-yl)methyl)-7-(1-(2-fluoro-6-methylphenyl)piperidin-4-yl)-3-methylpyrido[2,3-b]pyrazin-6(5H)-one]
19 | < 500 | Non-Active at 10 μM |  | CCOc1nccnc1Cn1c(=O)c([C@H]2CC[C@H](c3c(C)cccc3F)CC2)cc2ncc(C)nc21 [compound 169, 5-((3-Ethoxypyrazin-2-yl)methyl)-7-((1r,4r)-4-(2-fluoro-6-methylphenyl)cyclohexyl)-3-methylpyrido[2,3-b]pyrazin-6(5H)-one]
20 | < 500 | Non-Active at 10 μM |  | FC(F)(F)c1cccnc1CN1CC(C2CCN(c3ncccc3Cl)CC2)=Cc2nccnc21 [compound 170, 7-(1-(3-Chloropyridin-2-yl)piperidin-4-yl)-5-((3-(trifluoromethyl)pyridin-2-yl)methyl)-5,6-dihydropyrido[2,3-b]pyrazine]
21 | < 500 | Non-Active at 10 μM |  | COc1nccnc1Cn1c(=O)c([C@H]2CC[C@H](c3c(C)cccc3F)CC2)cc2ncc(C)nc21 [compound 173, 7-((1r,4r)-4-(2-Fluoro-6-methylphenyl)cyclohexyl)-5-((3-methoxypyrazin-2-yl)methyl)-3-methylpyrido[2,3-b]pyrazin-6(5H)-one]
22 | < 500 |  | Non-Active | Cc1cnc2cc([C@H]3CC[C@H](c4c(C)cccc4F)CC3)c(=O)n(Cc3ncccc3C(F)F)c2n1 [compound 176, 5-((3-(Difluoromethyl)pyridin-2-yl)methyl)-7-((1r,4r)-4-(2-fluoro-6-methylphenyl)cyclohexyl)-3-methylpyrido[2,3-b]pyrazin-6(5H)-one]
23 | < 500 |  | Non-Active | Cc1cnc2cc([C@H]3CC[C@H](c4c(C)cccc4F)CC3)c(=O)n(Cc3ncccc3C(C)(F)F)c2n1 [compound 177, 5-((3-(1,1-Difluoroethyl)pyridin-2-yl)methyl)-7-((1r,4r)-4-(2-fluoro-6-methylphenyl)cyclohexyl)-3-methylpyrido[2,3-b]pyrazin-6(5H)-one]
